For orientation: IC50 means the concentration needed to halve the response being measured.

The source of these data is patent US6767533B1, “Use of a substance binding with the peripheral benzodiazepin receptor for treating skin stress” (Sanofi-Synthelabo, priority 1998, dated 2004).

Like-named read-outs stand apart in the source and are kept apart here.

For assay [1], the target named is T1, peripheral benzodiazepine receptor (PBR) (Homo sapiens, UniProt P30536).
T1 construct: the peripheral receptor borne by the keratinocytes; host or cells: A-431 human epidermoid carcinoma keratinocyte line
T1 sequence (P30536 whole entry): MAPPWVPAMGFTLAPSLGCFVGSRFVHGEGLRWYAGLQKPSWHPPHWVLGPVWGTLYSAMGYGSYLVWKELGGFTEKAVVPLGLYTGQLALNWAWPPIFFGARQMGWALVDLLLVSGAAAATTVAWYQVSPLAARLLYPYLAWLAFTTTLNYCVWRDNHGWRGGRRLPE
Nature of the assay: Binding studies on keratinocyte line A-431 by displacement of [3H]-PK11195. (In general: Loss of bound radioactivity is the signal in a displacement assay; it reports binding, not function.)

The next assay concerns human keratinocytes. Nature of the assay: Protection of keratinocytes against UVB-induced cell impairment (apoptosis ELISA). The format is cell-based. Particulars: UVB 250 J/m^2 for 16 hours, ligand concentration range between 10 nM and 10 μm. Here is the method: The anti-apoptotic activity of the active agents was measured on human keratinocytes and on fibroblasts (ATCC) which were inoculated in 35 mm Petri dishes (5×10^5 cells/well) in DMEM (Dubelco's Mode Eagle Medium) supplemented with 10% fetal calf serum and left to proliferate to the point of confluence. This culture medium is then drawn off, the cells are rinsed and 0.1% fetal calf serum is added in the presence of a saline solution. Increasing concentrations of the substance to be studied are added. Twenty four hours later, the apoptosis is measured with an ELISA (enzyme-linked immunosorbent assay) assay kit.
Keratinocytes were subjected to ultraviolet radiation of type B (UVB) at a dose of 250 J/m^2 for 16 hours (J. Invest. Dermatol. 1995, 104: 922-927). In the presence of the PBR ligand Ro 5-4864, it was shown that the cell impairment processes induced by the irradiation are prevented in a ligand concentration range of between 10 nM and 10 μm.
(In general: In an ELISA, binding on a coated surface is turned into a signal by an enzyme label.)

As to `CN1C(=O)CN=C(c2ccc(Cl)cc2)c2cc(Cl)ccc21` [Ro 5-4864, chlorodiazepam], the IC50 in assay [1] (A-431 keratinocyte line, read-out: IC50, displacement of the reference peripheral ligand PK 11195) is about 0.025 µM. The “cell impairment processes induced by UVB irradiation” value in the assay with human keratinocytes is recorded as “prevented”. As for `O=C1CN=C(c2ccccc2Cl)c2cc([N+](=O)[O-])ccc2N1` [clonazepam], the “displacement of the reference peripheral ligand PK 11195” value in assay [1] (A-431 keratinocyte line, at 3 200 nM) is “inactive”.

In assay [1], `CN1C(=O)CN=C(c2ccccc2)c2cc(Cl)ccc21` [diazepam] returned an IC50 of about 0.1 µM.
